Reference: patent US20250034210A1, “DLL3 TARGETING PEPTIDES AND CONSTRUCTS THEREOF” (MARIANA ONCOLOGY INC., priority 2023, published 2025)
*1 amine or outer side, *2 acyl side, *3 side chain or, on linkers, in order; H or OH if unused. Where a SMILES comes first, the peptide text is derived from it. Bridges are numbered along the chain shown (N, C = ends). [ ]: non-standard residue; d: D form. The star is where a group is joined. DOTA = O=C(O)CN1CCN(CC(=O)O)CCN(CC(=O)*)CCN(CC(=O)O)CC1; Phe(2-CF3) = N[C@@H](Cc1ccccc1C(F)(F)F)C(=O)O; Pro(trans-4-F) = O=C(O)[C@@H]1C[C@@H](F)CN1; d(γGlu) = O=C(O)[C@@H](CCC(=O)[*:2])N[*:1]; Pro(cis-4-F) = O=C(O)[C@@H]1C[C@H](F)CN1; Pro(4R-NH2) = N[C@H]1CN[C@H](C(=O)O)C1; cisHyp = O=C(O)[C@@H]1C[C@H](O)CN1; Hyp = O=C(O)[C@@H]1C[C@@H](O)CN1; dNle = CCCC[C@@H](N)C(=O)O; Pip = O=C(O)[C@@H]1CCCCN1; Ahx = NCCCCCC(=O)O

molecular target: T1, human DLL3 (Homo sapiens, UniProt Q9NYJ7); assay: Affinity determination by Surface Plasmon Resonance (SPR), biotinylated human DLL3 immobilized on streptavidin sensor chip; conditions: 25° C., Biacore, 1:1 binding model
T1 construct: biotin (biotinylated)
T1 sequence (Q9NYJ7 27-618): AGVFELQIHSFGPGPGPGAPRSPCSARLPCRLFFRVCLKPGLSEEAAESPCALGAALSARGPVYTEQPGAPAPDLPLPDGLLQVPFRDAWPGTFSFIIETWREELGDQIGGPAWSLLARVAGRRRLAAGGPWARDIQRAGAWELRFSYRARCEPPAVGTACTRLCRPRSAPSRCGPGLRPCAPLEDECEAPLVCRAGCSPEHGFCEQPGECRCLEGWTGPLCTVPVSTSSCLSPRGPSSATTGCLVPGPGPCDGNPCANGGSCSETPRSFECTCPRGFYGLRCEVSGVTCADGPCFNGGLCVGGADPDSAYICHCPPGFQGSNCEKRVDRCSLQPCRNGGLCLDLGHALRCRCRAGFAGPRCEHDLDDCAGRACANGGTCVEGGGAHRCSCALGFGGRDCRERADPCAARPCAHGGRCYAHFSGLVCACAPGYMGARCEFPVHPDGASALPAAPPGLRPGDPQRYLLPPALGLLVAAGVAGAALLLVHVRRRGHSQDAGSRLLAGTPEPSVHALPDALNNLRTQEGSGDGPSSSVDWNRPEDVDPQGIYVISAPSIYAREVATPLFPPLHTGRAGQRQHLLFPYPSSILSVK
Method: Affinity Determination by Surface Plasmon Resonance (SPR). SPR studies were performed on the compounds disclosed herein using the following protocol.
The binding affinity and binding kinetic parameters at 25° C. were determined using Biacore S200 or biacore 8K instrument. Biotinylated target ligand human DLL3 was immobilized on a streptavidin sensor chip. A reference surface was set up for nonspecific binding and refractive index changes. For analysis of the kinetics of interactions, varying concentrations of samples were injected at a flow rate of 100 μL/min using running buffer containing 20 mM phosphate buffer with 2.7 mM KCl, 137 mM NaCl, 0.05% Surfactant P20 and 2% DMSO. Sensorgram curves were fitted with 1:1 binding model, and affinity and kinetic parameters were obtained using Biacore Insight evaluation 4.0. software.

Kd | Compound
1 to 10 nM | C[C@@H](O)[C@H](NC(=O)[C@H](Cc1c[nH]c2ccccc12)NC(=O)CCCCCNC(=O)CN1CCN(CC(=O)O)CCN(CC(=O)O)CCN(CC(=O)O)CC1)C(=O)N[C@@H](Cc1ccccc1C(F)(F)F)C(=O)N[C@H]1CSSC[C@@H](C(=O)N[C@@H](Cc2c[nH]c3ccccc23)C(=O)N2CCC[C@H]2C(N)=O)NC(=O)[C@H](CC(=O)O)NC(=O)[C@H](Cc2cnc[nH]2)NC(=O)[C@H](Cc2c[nH]c3ccccc23)NC(=O)[C@H](CC(N)=O)NC(=O)[C@H](CC(N)=O)NC1=O [compound 65, DOTA-Ahx-W-T-(2CF3-F)-C(3)-N-N-W-H-D-C(3)-W-P-CONH2] ({DOTA-Ahx}-WT[Phe(2-CF3)]CNNWHDCWP-NH2; disulfide 4-10)
1 to 10 nM | CC[C@H](C)[C@H](NC(=O)[C@@H](NC(=O)[C@H](Cc1c[nH]c2ccccc12)NC(=O)CCCCCNC(=O)CN1CCN(CC(=O)O)CCN(CC(=O)O)CCN(CC(=O)O)CC1)[C@@H](C)O)C(=O)N[C@H]1CSSC[C@@H](C(=O)N[C@@H](Cc2c[nH]c3ccccc23)C(=O)N2C[C@H](F)C[C@H]2C(N)=O)NC(=O)[C@H](CC(=O)O)NC(=O)[C@H](Cc2cnc[nH]2)NC(=O)[C@H](Cc2c[nH]c3ccccc23)NC(=O)[C@H](CC(N)=O)NC(=O)[C@H](CC(N)=O)NC1=O [compound 66, DOTA-Ahx-W-T-I-C(3)-N-N-W-H-D-C(3)-W-(trans4Fluoro-P)-CONH2] ({DOTA-Ahx}-WTICNNWHDCW[Pro(trans-4-F)]-NH2; disulfide 4-10)
100 to 300 nM | CC[C@H](C)[C@H](NC(=O)[C@@H](NC(=O)[C@H](Cc1c[nH]c2ccccc12)NC(=O)CCCCCNC(=O)CN1CCN(CC(=O)O)CCN(CC(=O)O)CCN(CC(=O)O)CC1)[C@@H](C)O)C(=O)N[C@H]1CSSC[C@@H](C(=O)N[C@@H](Cc2c[nH]c3ccccc23)C(=O)N2C[C@@H](F)C[C@H]2C(N)=O)NC(=O)[C@H](CC(=O)O)NC(=O)[C@H](Cc2cnc[nH]2)NC(=O)[C@H](Cc2c[nH]c3ccccc23)NC(=O)[C@H](CC(N)=O)NC(=O)[C@H](CC(N)=O)NC1=O [compound 67, DOTA-Ahx-W-T-I-C(3)-N-N-W-H-D-C(3)-W-(Cis4Fluoro-P)-CONH2] ({DOTA-Ahx}-WTICNNWHDCW[Pro(cis-4-F)]-NH2; disulfide 4-10)
10 to 100 nM | CC[C@H](C)[C@H](NC(=O)[C@@H](NC(=O)[C@H](Cc1c[nH]c2ccccc12)NC(=O)CCCCCNC(=O)CN1CCN(CC(=O)O)CCN(CC(=O)O)CCN(CC(=O)O)CC1)[C@@H](C)O)C(=O)N[C@H]1CSSC[C@@H](C(=O)N[C@@H](Cc2c[nH]c3ccccc23)C(=O)N2C[C@H](O)C[C@H]2C(N)=O)NC(=O)[C@H](CC(=O)O)NC(=O)[C@H](Cc2cnc[nH]2)NC(=O)[C@H](Cc2c[nH]c3ccccc23)NC(=O)[C@H](CC(N)=O)NC(=O)[C@H](CC(N)=O)NC1=O [compound 68, DOTA-Ahx-W-T-I-C(3)-N-N-W-H-D-C(3)-W-(trans4OH-P)-CONH2] ({DOTA-Ahx}-WTICNNWHDCW[Hyp]-NH2; disulfide 4-10)
100 to 300 nM | CC[C@H](C)[C@H](NC(=O)[C@@H](NC(=O)[C@H](Cc1c[nH]c2ccccc12)NC(=O)CCCCCNC(=O)CN1CCN(CC(=O)O)CCN(CC(=O)O)CCN(CC(=O)O)CC1)[C@@H](C)O)C(=O)N[C@H]1CSSC[C@@H](C(=O)N[C@@H](Cc2c[nH]c3ccccc23)C(=O)N2C[C@@H](O)C[C@H]2C(N)=O)NC(=O)[C@H](CC(=O)O)NC(=O)[C@H](Cc2cnc[nH]2)NC(=O)[C@H](Cc2c[nH]c3ccccc23)NC(=O)[C@H](CC(N)=O)NC(=O)[C@H](CC(N)=O)NC1=O [compound 69, DOTA-Ahx-W-T-I-C(3)-N-N-W-H-D-C(3)-W-(cis4OH-P)-CONH2] ({DOTA-Ahx}-WTICNNWHDCW[cisHyp]-NH2; disulfide 4-10)
10 to 100 nM | CC[C@H](C)[C@H](NC(=O)[C@@H](NC(=O)[C@H](Cc1c[nH]c2ccccc12)NC(=O)CCCCCNC(=O)CN1CCN(CC(=O)O)CCN(CC(=O)O)CCN(CC(=O)O)CC1)[C@@H](C)O)C(=O)N[C@H]1CSSC[C@@H](C(=O)N[C@@H](Cc2c[nH]c3ccccc23)C(=O)N2CCCC[C@H]2C(N)=O)NC(=O)[C@H](CC(=O)O)NC(=O)[C@H](Cc2cnc[nH]2)NC(=O)[C@H](Cc2c[nH]c3ccccc23)NC(=O)[C@H](CC(N)=O)NC(=O)[C@H](CC(N)=O)NC1=O [compound 70, DOTA-Ahx-W-T-I-C(3)-N-N-W-H-D-C(3)-W-(Pip)-CONH2] ({DOTA-Ahx}-WTICNNWHDCW[Pip]-NH2; disulfide 4-10)
10 to 100 nM | CC[C@H](C)[C@H](NC(=O)[C@@H](NC(=O)[C@H](Cc1c[nH]c2ccccc12)NC(=O)[C@@H](CCCCNC(=O)CN1CCN(CC(=O)O)CCN(CC(=O)O)CCN(CC(=O)O)CC1)NC(C)=O)[C@@H](C)O)C(=O)N[C@H]1CSSC[C@@H](C(=O)N[C@@H](Cc2c[nH]c3ccccc23)C(=O)N2CCC[C@H]2C(N)=O)NC(=O)[C@H](CC(=O)O)NC(=O)[C@H](Cc2c[nH]cn2)NC(=O)[C@H](Cc2c[nH]c3ccccc23)NC(=O)[C@H](CC(N)=O)NC(=O)[C@H](CC(N)=O)NC1=O [compound 73, Ac-D-Lys(DOTA)-W-T-I-C(3)-N-N-W-H-D-C(3)-W-P-CONH2] (Ac-[dK](DOTA)WTICNNWHDCWP-NH2; disulfide 5-11)
1 to 10 nM | CCCC[C@@H](NC(=O)[C@@H]1CCCN1C(=O)[C@H](Cc1c[nH]c2ccccc12)NC(=O)[C@@H]1CSSC[C@H](NC(=O)[C@@H](NC(=O)[C@@H](NC(=O)[C@H](Cc2c[nH]c3ccccc23)NC(=O)CCCCCNC(=O)CN2CCN(CC(=O)O)CCN(CC(=O)O)CCN(CC(=O)O)CC2)[C@@H](C)O)[C@@H](C)CC)C(=O)N[C@@H](CC(N)=O)C(=O)N[C@@H](CC(N)=O)C(=O)N[C@@H](Cc2c[nH]c3ccccc23)C(=O)N[C@@H](Cc2cnc[nH]2)C(=O)N[C@@H](CC(=O)O)C(=O)N1)C(N)=O [compound 163, DOTA-Ahx-W-T-I-C(3)-N-N-W-H-D-C(3)-W-P-(D-Nle)-NH2] ({DOTA-Ahx}-WTICNNWHDCWP[dNle]-NH2; disulfide 4-10)
10 to 100 nM | CC[C@H](C)[C@H](NC(=O)[C@@H](NC(=O)[C@H](Cc1c[nH]c2ccccc12)NC(=O)CC[C@@H](NC(=O)CC[C@@H](NC(=O)CC[C@@H](NC(=O)CN1CCN(CC(=O)O)CCN(CC(=O)O)CCN(CC(=O)O)CC1)C(=O)O)C(=O)O)C(=O)O)[C@@H](C)O)C(=O)N[C@H]1CSSC[C@@H](C(=O)N[C@@H](Cc2c[nH]c3ccccc23)C(=O)N2CCC[C@H]2C(=O)O)NC(=O)[C@H](CC(=O)O)NC(=O)[C@H](Cc2c[nH]cn2)NC(=O)[C@H](Cc2c[nH]c3ccccc23)NC(=O)[C@H](CC(N)=O)NC(=O)[C@H](CC(N)=O)NC1=O [compound 221, DOTA-(D-gE)3-W-T-I-C(3)-N-N-W-H-D-C(3)-W-P-CONH2] ({DOTA-d(γGlu)-d(γGlu)-d(γGlu)}-WTICNNWHDCWP-OH; disulfide 4-10)
10 to 100 nM | CC[C@H](C)[C@H](NC(=O)[C@@H](NC(=O)[C@H](Cc1c[nH]c2ccccc12)NC(=O)CCCCCNC(=O)CN1CCN(CC(=O)O)CCN(CC(=O)O)CCN(CC(=O)O)CC1)[C@@H](C)O)C(=O)N[C@H]1CSSC[C@@H](C(=O)N[C@@H](Cc2c[nH]c3ccccc23)C(=O)N2C[C@H](N)C[C@H]2C(N)=O)NC(=O)[C@H](CC(=O)O)NC(=O)[C@H](Cc2cnc[nH]2)NC(=O)[C@H](Cc2c[nH]c3ccccc23)NC(=O)[C@H](CC(N)=O)NC(=O)[C@H](CC(N)=O)NC1=O [compound 224, DOTA-Ahx-W-T-I-C(3)-N-N-W-H-D-C(3)-W-(trans4NH2-P)-CONH2] ({DOTA-Ahx}-WTICNNWHDCW[Pro(4R-NH2)]-NH2; disulfide 4-10)
